Laboratory results taken from paper PMC10176470, “Engaging a Non-catalytic Cysteine Residue Drives Potent and Selective Inhibition of Caspase-6” (Journal of the American Chemical Society, 2023).

What was measured:
Format in all cases: cell-based
[1] = target: proteins of HEK293T cells transiently overexpressing caspase-6 (Homo sapiens, UniProt P28838); settings: exp_ref Probe; protein LAP3 (P28838); analysis C6
[2] = target: proteins of HEK293T cells transiently overexpressing caspase-6 (Homo sapiens, UniProt P62249); settings: exp_ref Probe; protein RPS16 (P62249); analysis C6
[3] = target: proteins of HEK293T cells transiently overexpressing caspase-6 (Homo sapiens, UniProt P38606); settings: exp_ref Probe; protein ATP6V1A (P38606); analysis C6
[4] = target: proteins of HEK293T cells transiently overexpressing caspase-6 (Homo sapiens, UniProt P78527); settings: exp_ref Probe; protein PRKDC (P78527); analysis C6
[5] = target: proteins of HEK293T cells transiently overexpressing caspase-6 (Homo sapiens, UniProt P02786); settings: protein TFRC (P02786)
[6] = target: proteins of HEK293T cells transiently overexpressing caspase-6 (Homo sapiens, UniProt Q13148); settings: protein TARDBP (Q13148); exp_ref Probe; analysis C6
[7] = target: T1, proteins of HEK293T cells transiently overexpressing caspase-6 (Homo sapiens, UniProt P22234); settings: protein PAICS (P22234)
T1 sequence (P22234 1-425): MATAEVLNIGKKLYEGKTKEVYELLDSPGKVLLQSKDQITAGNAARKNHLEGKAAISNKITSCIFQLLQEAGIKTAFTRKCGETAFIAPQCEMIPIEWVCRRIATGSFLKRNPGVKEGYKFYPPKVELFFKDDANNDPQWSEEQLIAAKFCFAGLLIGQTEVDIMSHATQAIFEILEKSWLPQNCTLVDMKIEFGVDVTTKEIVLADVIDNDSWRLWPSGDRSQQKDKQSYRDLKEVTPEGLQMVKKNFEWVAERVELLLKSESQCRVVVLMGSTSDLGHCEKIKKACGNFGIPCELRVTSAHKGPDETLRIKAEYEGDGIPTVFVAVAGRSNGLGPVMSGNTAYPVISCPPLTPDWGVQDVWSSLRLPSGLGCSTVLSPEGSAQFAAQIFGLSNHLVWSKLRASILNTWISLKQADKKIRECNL

[8] = target: proteins of HEK293T cells transiently overexpressing caspase-6 (Homo sapiens, UniProt P35579); settings: Probe; protein MYH9 P35579
[9] = target: proteins of HEK293T cells transiently overexpressing caspase-6 (Homo sapiens, UniProt Q8NBS9); settings: exp_ref Probe; protein TXNDC5 (Q8NBS9); analysis C6
[10] = target: proteins of HEK293T cells transiently overexpressing caspase-6 (Homo sapiens, UniProt P62826); settings: exp_ref Probe; protein RAN (P62826); analysis C6
[11] = target: proteins of HEK293T cells transiently overexpressing caspase-6 (Homo sapiens, UniProt O14880); settings: exp_ref Probe; protein MGST3 (O14880); analysis C6
[12] = target: T2, proteins of HEK293T cells transiently overexpressing caspase-6 (Homo sapiens, UniProt P28074)
T2 sequence (P28074 60-263): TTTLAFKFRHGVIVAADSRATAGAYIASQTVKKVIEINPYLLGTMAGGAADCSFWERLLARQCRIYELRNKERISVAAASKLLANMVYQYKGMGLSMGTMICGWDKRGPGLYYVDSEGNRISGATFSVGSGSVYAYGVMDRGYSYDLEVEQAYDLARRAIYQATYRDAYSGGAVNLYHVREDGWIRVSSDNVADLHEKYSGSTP

[13] = target: proteins of HEK293T cells transiently overexpressing caspase-6 (Homo sapiens, UniProt P49588); settings: Probe; protein AARS P49588
[14] = target: proteins of HEK293T cells transiently overexpressing caspase-6 (Homo sapiens, UniProt P23246); settings: exp_ref Probe; protein SFPQ (P23246); analysis C6
[15] = target: proteins of HEK293T cells transiently overexpressing caspase-6 (Homo sapiens, UniProt P43243); settings: exp_ref Probe; protein MATR3 (P43243); analysis C6
[16] = target: T3, proteins of HEK293T cells transiently overexpressing caspase-6 (Homo sapiens, UniProt Q8NC51)
T3 sequence (Q8NC51 1-408): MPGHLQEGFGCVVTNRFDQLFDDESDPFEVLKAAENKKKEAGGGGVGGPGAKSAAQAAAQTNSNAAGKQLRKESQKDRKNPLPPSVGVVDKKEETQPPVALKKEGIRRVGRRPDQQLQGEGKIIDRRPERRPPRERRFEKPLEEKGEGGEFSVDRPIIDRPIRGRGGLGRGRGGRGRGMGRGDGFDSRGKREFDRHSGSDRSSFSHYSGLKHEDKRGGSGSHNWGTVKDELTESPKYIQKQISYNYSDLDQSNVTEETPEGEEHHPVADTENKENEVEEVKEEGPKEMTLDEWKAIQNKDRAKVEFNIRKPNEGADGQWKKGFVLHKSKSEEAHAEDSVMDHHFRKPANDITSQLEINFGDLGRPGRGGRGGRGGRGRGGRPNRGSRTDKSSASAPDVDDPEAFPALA

[17] = target: proteins of HEK293T cells transiently overexpressing caspase-6 (Homo sapiens, UniProt P09211); settings: exp_ref Probe; protein GSTP1 (P09211); analysis C6
[18] = target: proteins of HEK293T cells transiently overexpressing caspase-6 (Homo sapiens, UniProt Q16531); settings: Probe; protein DDB1 Q16531
Sequence of proteins of HEK293T cells transiently overexpressing caspase-6 (Homo sapiens, UniProt Q16531) (Q16531 whole entry): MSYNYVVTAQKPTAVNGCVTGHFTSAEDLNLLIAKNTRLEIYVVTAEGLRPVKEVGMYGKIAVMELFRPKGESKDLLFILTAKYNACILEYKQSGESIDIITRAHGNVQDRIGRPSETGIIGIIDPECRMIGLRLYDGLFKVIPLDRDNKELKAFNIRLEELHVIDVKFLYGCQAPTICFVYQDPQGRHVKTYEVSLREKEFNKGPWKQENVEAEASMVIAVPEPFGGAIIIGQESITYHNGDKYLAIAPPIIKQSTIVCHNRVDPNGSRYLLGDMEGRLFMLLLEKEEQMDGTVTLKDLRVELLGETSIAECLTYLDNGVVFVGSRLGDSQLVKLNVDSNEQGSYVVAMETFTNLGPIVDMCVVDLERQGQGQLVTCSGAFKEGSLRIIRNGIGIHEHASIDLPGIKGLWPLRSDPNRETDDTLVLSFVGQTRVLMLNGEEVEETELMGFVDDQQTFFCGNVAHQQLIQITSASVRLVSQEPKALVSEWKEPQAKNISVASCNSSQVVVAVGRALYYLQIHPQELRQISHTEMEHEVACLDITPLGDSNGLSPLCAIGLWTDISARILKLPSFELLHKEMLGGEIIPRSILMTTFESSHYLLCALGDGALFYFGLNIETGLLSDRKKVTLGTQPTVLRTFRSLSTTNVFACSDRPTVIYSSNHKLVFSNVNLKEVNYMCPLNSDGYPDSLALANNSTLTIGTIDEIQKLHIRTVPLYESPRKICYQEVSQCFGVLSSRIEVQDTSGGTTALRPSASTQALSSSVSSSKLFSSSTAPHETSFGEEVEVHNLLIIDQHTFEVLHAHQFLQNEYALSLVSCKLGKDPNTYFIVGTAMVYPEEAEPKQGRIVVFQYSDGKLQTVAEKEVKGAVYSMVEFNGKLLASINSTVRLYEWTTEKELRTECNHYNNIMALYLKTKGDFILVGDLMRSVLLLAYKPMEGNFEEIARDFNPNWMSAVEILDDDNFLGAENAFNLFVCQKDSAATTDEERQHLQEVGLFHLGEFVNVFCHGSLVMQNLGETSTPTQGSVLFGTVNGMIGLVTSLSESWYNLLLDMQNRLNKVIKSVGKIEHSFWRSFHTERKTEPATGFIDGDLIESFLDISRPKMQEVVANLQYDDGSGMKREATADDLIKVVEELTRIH

Sequence of proteins of HEK293T cells transiently overexpressing caspase-6 (Homo sapiens, UniProt P02786) (P02786 whole entry): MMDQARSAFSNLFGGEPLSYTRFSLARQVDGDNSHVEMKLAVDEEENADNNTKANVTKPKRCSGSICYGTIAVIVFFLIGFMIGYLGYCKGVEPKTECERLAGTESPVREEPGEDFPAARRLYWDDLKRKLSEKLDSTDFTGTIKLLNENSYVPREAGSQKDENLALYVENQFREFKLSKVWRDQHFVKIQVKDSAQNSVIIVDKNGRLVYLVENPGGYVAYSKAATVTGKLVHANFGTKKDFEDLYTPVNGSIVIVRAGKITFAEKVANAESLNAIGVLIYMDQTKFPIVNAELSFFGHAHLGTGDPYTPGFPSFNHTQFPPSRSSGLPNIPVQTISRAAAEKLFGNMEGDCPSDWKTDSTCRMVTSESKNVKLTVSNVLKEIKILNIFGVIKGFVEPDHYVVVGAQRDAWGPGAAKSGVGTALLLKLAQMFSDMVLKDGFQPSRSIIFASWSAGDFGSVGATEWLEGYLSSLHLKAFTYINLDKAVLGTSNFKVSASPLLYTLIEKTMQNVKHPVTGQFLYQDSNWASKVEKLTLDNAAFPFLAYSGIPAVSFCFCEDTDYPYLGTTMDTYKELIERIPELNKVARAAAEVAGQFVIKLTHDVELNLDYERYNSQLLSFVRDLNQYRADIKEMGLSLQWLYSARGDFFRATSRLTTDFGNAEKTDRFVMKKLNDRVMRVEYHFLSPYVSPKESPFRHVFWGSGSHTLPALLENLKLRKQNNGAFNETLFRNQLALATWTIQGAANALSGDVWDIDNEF
Sequence of proteins of HEK293T cells transiently overexpressing caspase-6 (Homo sapiens, UniProt O14880) (O14880 whole entry): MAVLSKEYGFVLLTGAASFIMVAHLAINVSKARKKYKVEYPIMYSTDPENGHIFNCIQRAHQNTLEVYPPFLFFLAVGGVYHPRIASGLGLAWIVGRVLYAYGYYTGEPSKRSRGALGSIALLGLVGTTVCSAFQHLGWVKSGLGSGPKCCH
Sequence of proteins of HEK293T cells transiently overexpressing caspase-6 (Homo sapiens, UniProt P49588) (P49588 whole entry): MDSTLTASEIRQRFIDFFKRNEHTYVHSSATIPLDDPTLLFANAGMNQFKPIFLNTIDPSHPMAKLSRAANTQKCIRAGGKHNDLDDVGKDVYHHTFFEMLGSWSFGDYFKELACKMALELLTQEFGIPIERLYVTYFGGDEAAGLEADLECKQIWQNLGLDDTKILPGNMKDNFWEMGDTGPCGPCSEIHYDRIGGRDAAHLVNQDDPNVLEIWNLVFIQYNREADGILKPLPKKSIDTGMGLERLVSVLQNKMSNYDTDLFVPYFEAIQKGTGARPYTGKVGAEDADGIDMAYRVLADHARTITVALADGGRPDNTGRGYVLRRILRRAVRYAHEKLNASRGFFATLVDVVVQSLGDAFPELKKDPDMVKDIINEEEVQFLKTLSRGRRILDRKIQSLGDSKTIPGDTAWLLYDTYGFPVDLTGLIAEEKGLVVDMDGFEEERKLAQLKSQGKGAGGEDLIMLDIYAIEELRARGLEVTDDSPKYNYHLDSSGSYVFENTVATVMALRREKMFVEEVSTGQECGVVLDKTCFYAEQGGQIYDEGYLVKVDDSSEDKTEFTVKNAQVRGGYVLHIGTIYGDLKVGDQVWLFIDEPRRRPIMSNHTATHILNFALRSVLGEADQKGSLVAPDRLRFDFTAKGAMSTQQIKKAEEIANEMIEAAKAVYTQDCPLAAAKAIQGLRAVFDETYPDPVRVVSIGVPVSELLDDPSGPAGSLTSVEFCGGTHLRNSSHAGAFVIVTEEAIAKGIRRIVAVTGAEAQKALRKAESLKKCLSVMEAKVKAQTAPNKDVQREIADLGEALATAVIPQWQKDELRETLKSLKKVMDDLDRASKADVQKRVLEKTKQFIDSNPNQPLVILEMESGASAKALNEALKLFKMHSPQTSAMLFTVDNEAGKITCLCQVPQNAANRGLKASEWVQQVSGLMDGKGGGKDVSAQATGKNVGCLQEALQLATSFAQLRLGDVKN
Sequence of proteins of HEK293T cells transiently overexpressing caspase-6 (Homo sapiens, UniProt Q13148) (Q13148 whole entry): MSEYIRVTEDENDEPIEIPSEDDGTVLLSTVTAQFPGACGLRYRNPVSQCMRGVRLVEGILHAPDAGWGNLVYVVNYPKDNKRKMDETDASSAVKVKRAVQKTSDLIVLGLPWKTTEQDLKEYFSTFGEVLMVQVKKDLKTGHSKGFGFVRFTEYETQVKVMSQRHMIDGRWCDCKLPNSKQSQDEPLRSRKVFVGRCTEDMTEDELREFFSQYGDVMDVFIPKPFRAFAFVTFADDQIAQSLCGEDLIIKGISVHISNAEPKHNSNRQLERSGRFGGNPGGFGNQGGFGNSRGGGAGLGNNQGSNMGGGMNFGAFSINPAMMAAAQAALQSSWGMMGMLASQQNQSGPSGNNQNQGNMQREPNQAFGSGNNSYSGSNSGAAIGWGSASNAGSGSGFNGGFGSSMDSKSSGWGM
Sequence of proteins of HEK293T cells transiently overexpressing caspase-6 (Homo sapiens, UniProt P09211) (P09211 whole entry): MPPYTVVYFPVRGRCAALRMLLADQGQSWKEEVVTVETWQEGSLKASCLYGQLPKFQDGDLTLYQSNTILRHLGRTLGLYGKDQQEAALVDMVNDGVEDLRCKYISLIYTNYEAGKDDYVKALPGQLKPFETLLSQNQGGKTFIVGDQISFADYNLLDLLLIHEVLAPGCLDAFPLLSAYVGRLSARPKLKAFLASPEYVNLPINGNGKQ
Sequence of proteins of HEK293T cells transiently overexpressing caspase-6 (Homo sapiens, UniProt P28838) (P28838 whole entry): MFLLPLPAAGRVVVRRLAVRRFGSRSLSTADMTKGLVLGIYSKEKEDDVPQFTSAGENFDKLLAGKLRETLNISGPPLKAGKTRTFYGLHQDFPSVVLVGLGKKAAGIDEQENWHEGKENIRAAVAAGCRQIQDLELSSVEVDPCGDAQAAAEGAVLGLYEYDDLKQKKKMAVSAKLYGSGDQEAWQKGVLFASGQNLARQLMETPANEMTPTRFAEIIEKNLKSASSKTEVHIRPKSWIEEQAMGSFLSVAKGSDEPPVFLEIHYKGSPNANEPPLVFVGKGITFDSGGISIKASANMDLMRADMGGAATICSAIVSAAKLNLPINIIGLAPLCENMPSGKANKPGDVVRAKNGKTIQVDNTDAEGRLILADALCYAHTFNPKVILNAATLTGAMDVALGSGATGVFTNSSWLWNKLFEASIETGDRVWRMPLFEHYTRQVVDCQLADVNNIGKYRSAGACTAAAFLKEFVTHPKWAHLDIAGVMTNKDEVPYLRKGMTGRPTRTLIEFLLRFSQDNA
Sequence of proteins of HEK293T cells transiently overexpressing caspase-6 (Homo sapiens, UniProt P43243) (P43243 whole entry): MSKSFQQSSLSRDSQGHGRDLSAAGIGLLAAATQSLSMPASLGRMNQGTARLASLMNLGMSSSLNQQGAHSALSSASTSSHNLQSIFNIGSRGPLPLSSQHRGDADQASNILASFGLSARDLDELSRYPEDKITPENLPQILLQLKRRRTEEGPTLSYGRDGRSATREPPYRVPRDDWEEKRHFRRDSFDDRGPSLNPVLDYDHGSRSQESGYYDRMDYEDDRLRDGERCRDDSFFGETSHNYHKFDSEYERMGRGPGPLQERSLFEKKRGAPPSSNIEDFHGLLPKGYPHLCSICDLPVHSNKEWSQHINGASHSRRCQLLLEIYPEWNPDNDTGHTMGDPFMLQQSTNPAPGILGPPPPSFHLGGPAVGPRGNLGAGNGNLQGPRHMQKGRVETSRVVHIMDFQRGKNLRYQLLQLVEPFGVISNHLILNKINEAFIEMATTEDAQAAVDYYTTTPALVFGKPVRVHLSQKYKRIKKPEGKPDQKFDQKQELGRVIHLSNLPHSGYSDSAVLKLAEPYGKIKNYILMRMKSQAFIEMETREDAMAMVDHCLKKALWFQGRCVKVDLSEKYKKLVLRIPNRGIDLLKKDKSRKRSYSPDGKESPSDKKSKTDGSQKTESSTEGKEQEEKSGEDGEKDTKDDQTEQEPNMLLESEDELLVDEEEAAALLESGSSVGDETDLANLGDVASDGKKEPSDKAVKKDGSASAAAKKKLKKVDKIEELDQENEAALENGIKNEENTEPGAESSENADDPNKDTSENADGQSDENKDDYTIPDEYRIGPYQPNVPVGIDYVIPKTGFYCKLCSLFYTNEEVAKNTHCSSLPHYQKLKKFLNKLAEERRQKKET

Work on `C#CCOc1ccc([C@@H]2C[C@@H](C(=O)Nc3ccc(OC(F)(F)F)cc3)CN(S(=O)(=O)C=C)C2)cc1` (relative stereo) [13-t] yielded an enrich.exp.med [1] of 0.6337, an enrich.exp.med [2] of -0.2776 and an enrich.exp.med [3] of 0.7344. The enrich.exp.med [4] was 0.5475, the enrich.exp.med ([5]; exp_ref Probe, analysis C6) was 0.8901 and the enrich.exp.med.lin [5] was 1.853. The enrich.exp.med.log2 [5] was 0.8901, the enrich.exp.med [6] was 1.294 and the enrich.exp.med ([7]; exp_ref Probe, analysis C6) was 0.8585. For the same compound, the enrich.exp.med.lin [7] was 1.813, the enrich.exp.med.log2 [7] was 0.8585 and the enrich.exp.med [8] was -0.6242. The enrich.exp.med [9] was 0.5284, the enrich.exp.med [10] was 0.5777 and the enrich.exp.med [11] was 1.143. For the same compound, the enrich.exp.med ([12]; Probe, protein PSMB5 P28074) was -2.323, the enrich.exp.med.lin ([12]; protein PSMB5 (P28074)) was 0.1999 and the enrich.exp.med.log2 ([12]; protein PSMB5 (P28074)) was -2.323. The enrich.exp.med [13] was -2.083, the enrich.exp.med [14] was -0.1094 and the enrich.exp.med [15] was 0.5323. The enrich.exp.med ([16]; Probe, protein SERBP1 Q8NC51) was -1.6881, the enrich.exp.med.lin ([16]; protein SERBP1 (Q8NC51)) was 0.3103 and the enrich.exp.med.log2 ([16]; protein SERBP1 (Q8NC51)) was -1.6881. It also gave an enrich.exp.med [17] of 0.03311 and an enrich.exp.med [18] of -0.5354.
